From patent publication US20090075951A1, “Methods and Reagents for the Treatment of Inflammatory Disorders” (CombinatoRx, Inc., priority 2003, published 2009)
Several values for one entry are separate records, joined by “and”; a condition that tells them apart may be missing. Equal values may be shown once. Read-outs that look alike come from different tables or passages of the source.

Tests used:
[1] = system: TNFα secretion from LPS stimulated white blood cells from human buffy coat; assay: TNFα secretion assay, LPS stimulation; conditions: for inhibition at 0.03 µM: read-out: TNFα LPS percent inhibition, 0.03 μM; for inhibition at 0.06 µM: read-out: TNFα LPS percent inhibition, 0.06 μM; for percent inhibition of TNFα secretion: LPS
Description: (§1) Various concentrations of each test compound were added at the time of stimulation. […] After the plate was washed with 0.1% Tween 20/PBS, an HRP-luminescent substrate was added to each well and light intensity measured using a LJL Analyst plate luminometer.

[2] = system: TNFα secretion from PMA/ionomycin stimulated white blood cells from human buffy coat; assay: TNFα secretion assay, PMA/ionomycin stimulation; conditions: for inhibition at 0.03 µM: read-out: TNFα PI percent inhibition, 0.03 μM; for inhibition at 0.06 µM: read-out: TNFα PI percent inhibition, 0.06 μM; for inhibition at 0.01 µM: read-out: TNFα PI percent inhibition, 0.01 μM
Description: as §1

[3] = system: cytokine secretion; assay: Suppression of cytokine secretion in vitro by individual tricyclic compounds
Description: Individual tricyclic compounds were tested for their ability to suppress cytokine secretion in vitro.

[4] = Homo sapiens, read-out: TNFα LPS percent inhibition, […]
[5] = read-out: TNFα PI percent inhibition, […]
[6] = read-out: IL-1β LPS percent inhibition
[7] = read-out: IL-2 PI percent inhibition
[8] = Amoxapine μM: 32.00, 16.00, 8.00, 4.00, 2.00, 1.00, 0.50, 0.25, 0.13, 0.06, 0.03, 0.02
[9] = Protriptyline μM by row r6-r17: 67.00, 33.50, 16.75, 8.38, 4.19, 2.09, 1.05, 0.52, 0.26, 0.13, 0.07, 0.03
[10] = Nortriptyline μM by row r6-r17: 67.00, 33.50, 16.75, 8.38, 4.19, 2.09, 1.05, 0.52, 0.26, 0.13, 0.07, 0.03
[11] = Clomipramine μM: 57.00, 28.50, 14.25, 7.13, 3.56, 1.78, 0.89, 0.45, 0.22, 0.11, 0.06, 0.03

For `CNCCCN1c2ccccc2CCc2ccccc21` [Desipramine, desipramine], the inhibition at 0.03 µM ([1]; Homo sapiens) was 0%, the inhibition at 0.06 µM ([1]; Homo sapiens) was 0% and the inhibition at 0.5 µM ([1]; Homo sapiens, read-out: TNFα LPS percent inhibition, 0.50 μM) was 0%. For the same compound, the inhibition at 1 µM ([1]; Homo sapiens, read-out: TNFα LPS percent inhibition, 1.00 μM) was 0%, the inhibition at 2 µM ([1]; Homo sapiens, read-out: TNFα LPS percent inhibition, 2.00 μM) was 0% and the inhibition at 4 µM ([1]; Homo sapiens, read-out: TNFα LPS percent inhibition, 4.00 μM) was 0%. It also gave an inhibition at 8 µM ([1]; Homo sapiens, read-out: TNFα LPS percent inhibition, 8.00 μM) of 0%, an inhibition at 16 µM [1, 4] of 3% and an inhibition at 32 µM [1, 4] of 34%. The inhibition at 64 µM [1, 4] was 64%, the “percent inhibition of TNFα secretion” value ([1]; Prednisolone 1 μM, Desipramine μM r5-r13: 0,0.5,1,2,4,8,16,32,64) was 60.8% and the inhibition at 0.03 µM [2] was 0%. It also gave an inhibition at 0.06 µM [2] of 0%, an inhibition at 0.5 µM ([2]; read-out: TNFα PI percent inhibition, 0.50 μM) of 0% and an inhibition at 1 µM ([2]; read-out: TNFα PI percent inhibition, 1.00 μM) of 0%. For the same compound, the inhibition at 2 µM ([2]; read-out: TNFα PI percent inhibition, 2.00 μM) was 1%, the inhibition at 4 µM ([2]; read-out: TNFα PI percent inhibition, 4.00 μM) was 17% and the inhibition at 8 µM ([2]; read-out: TNFα PI percent inhibition, 8.00 μM) was 26%. The inhibition at 16 µM [2, 5] was 60%, the inhibition at 32 µM [2, 5] was 79% and the inhibition at 64 µM [2, 5] was 89%. The inhibition at 0.03 µM [3, 6] was 0%, the inhibition at 0.06 µM [3, 6] was 0% and the inhibition at 0.5 µM [3, 6] was 11%. For the same compound, the inhibition at 1 µM [3, 6] was 13%, the inhibition at 2 µM [3, 6] was 10% and the inhibition at 4 µM [3, 6] was 10%. The inhibition at 8 µM [3, 6] was 10%, the inhibition at 16 µM [3, 6] was 3% and the inhibition at 32 µM [3, 6] was 9%. It also gave an inhibition at 64 µM [3, 6] of 36%, an inhibition at 0.03 µM [3, 7] of 0% and an inhibition at 0.06 µM [3, 7] of 0%. It also gave an inhibition at 0.5 µM [3, 7] of 0%, an inhibition at 1 µM [3, 7] of 0% and an inhibition at 2 µM [3, 7] of 0%. The inhibition at 4 µM [3, 7] was 0%, the inhibition at 8 µM [3, 7] was 8% and the inhibition at 16 µM [3, 7] was 38%. The inhibition at 32 µM [3, 7] was 68% and the inhibition at 64 µM [3, 7] was 76%.

Work on `CN(C)CCC=C1c2ccccc2COc2ccccc21` [Doxepin, doxepin] yielded an inhibition at 0.03 µM ([1]; Homo sapiens) of 0%, an inhibition at 0.06 µM ([1]; Homo sapiens) of 5% and an inhibition at 63 µM [1, 4] of 13%. It also gave an inhibition at 0.03 µM [2] of 0%, an inhibition at 0.06 µM [2] of 0% and an inhibition at 63 µM [2, 5] of 78%. The inhibition at 0.03 µM [3, 6] was 0%, the inhibition at 0.06 µM [3, 6] was 1% and the inhibition at 63 µM [3, 6] was 26%. The inhibition at 0.03 µM [3, 7] was 0%, the inhibition at 0.06 µM [3, 7] was 0% and the inhibition at 63 µM [3, 7] was 61%.

With `CNCC[C@@H](Oc1ccccc1C)c1ccccc1` [Tomoxetine, tomoxetine] the inhibition at 0.03 µM ([1]; Homo sapiens) was 0%, the inhibition at 0.07 µM ([1]; Homo sapiens, read-out: TNFα LPS percent inhibition, 0.07 μM) was 1% and the inhibition at 69 µM [1, 4] was 0%. For the same compound, the inhibition at 0.03 µM [2] was 0%, the inhibition at 0.07 µM ([2]; read-out: TNFα PI percent inhibition, 0.07 μM) was 4% and the inhibition at 69 µM [2, 5] was 72%. The inhibition at 0.03 µM [3, 6] was 0%, the inhibition at 0.07 µM [3, 6] was 0% and the inhibition at 69 µM [3, 6] was 0%. It also gave an inhibition at 0.03 µM [3, 7] of 0%, an inhibition at 0.07 µM [3, 7] of 1% and an inhibition at 69 µM [3, 7] of 79%.

For `Clc1ccc2c(c1)C(N1CCNCC1)=Nc1ccccc1O2` [Amoxapine, amoxapine], the “percent inhibition of TNFα secretion” value ([1]; Prednisolone 0.5 μM, Amoxapine μM r5-r13: 0,0.25,0.5,1,2,4,8,16,32) was 68.1%, the “IL-1β LPS, percent inhibition relative to untreated controls” value [3, 8] was 5% and 0% and the “IL-2 PI, percent inhibition relative to untreated controls” value [3, 8] was 0%. The “TNFα LPS, percent inhibition relative to untreated controls” value [3, 8] was 0% and the “TNFα PI, percent inhibition relative to untreated controls” value [3, 8] was 4% and 0%.

`CNCCCC1c2ccccc2C=Cc2ccccc21` [Protriptyline, protriptyline] was tested, and the “IL-1β LPS, percent inhibition relative to untreated controls” value [3, 9] was 0%, the “IL-2 PI, percent inhibition relative to untreated controls” value [3, 9] was 0% and the “TNFα LPS, percent inhibition relative to untreated controls” value [3, 9] was 2% and 0%. The “TNFα PI, percent inhibition relative to untreated controls” value [3, 9] was 0%.

With `Clc1ccc2c(c1)N=C(N1CCNCC1)c1ccccc1N2` [Norclozapine, norclozapine] the “percent inhibition of TNFα secretion” value ([1]; Prednisolone 0 μM, Norclozapine μM r5-r13: 0,0.21,0.41,0.83,1.7,3.3,6.6,13,27) was −17%.

`OCCOCCN1CCN(C2=Nc3ccccc3Sc3ccccc32)CC1` [Quetiapine fumurate] gave an inhibition at 0.01 µM [2] of 7%, an inhibition at 0.02 µM ([2]; read-out: TNFα PI percent inhibition, 0.02 μM) of 0% and an inhibition at 0.05 µM ([2]; read-out: TNFα PI percent inhibition, 0.05 μM) of 0%. It also gave an inhibition at 11 µM [2, 5] of 13%, an inhibition at 0.01 µM [3, 7] of 0% and an inhibition at 0.02 µM [3, 7] of 0%. The inhibition at 0.05 µM [3, 7] was 0% and the inhibition at 11 µM [3, 7] was 0%.

With `CN1CCN(C2=Nc3cc(F)ccc3Cc3ccccc32)CC1` [Fluperlapine, fluperlapine] the inhibition at 0.01 µM [2] was 0%, the inhibition at 0.04 µM ([2]; read-out: TNFα PI percent inhibition, 0.04 μM) was 0% and the inhibition at 0.4 µM ([2]; read-out: TNFα PI percent inhibition, 0.40 μM) was 0%. For the same compound, the inhibition at 32 µM [2, 5] was 25%, the inhibition at 0.01 µM [3, 7] was 6% and the inhibition at 0.04 µM [3, 7] was 8%. It also gave an inhibition at 0.4 µM [3, 7] of 7% and an inhibition at 32 µM [3, 7] of 1%.

In the case of `CNCCC=C1c2ccccc2CCc2ccccc21` [Nortriptyline, nortriptyline], the “IL-1β LPS, percent inhibition relative to untreated controls” value [3, 10] was 3% and 0%, the “IL-2 PI, percent inhibition relative to untreated controls” value [3, 10] was 0% and the “TNFα LPS, percent inhibition relative to untreated controls” value [3, 10] was 1% and 0%. For the same compound, the “TNFα PI, percent inhibition relative to untreated controls” value [3, 10] was 2%.

Compound `CCCC1O[C@@H]2C[C@H]3[C@@H]4CCC5=CC(=O)C=C[C@]5(C)[C@H]4[C@@H](O)C[C@]3(C)[C@]2(C(=O)CO)O1` (some centres unmarked) [Budesonide, budesonide] has an inhibition at […] ([2]; read-out: inhibition of TNFα secretion, Budesonide 35 nM, Imipramine nM: 0, 99, 394, 1578, 6311, 25000) of 42.1%, an inhibition at […] ([2]; read-out: inhibition of TNFα secretion, Budesonide 35 nM, Nortriptyline nM: 0, 52, 208, 834, 3336, 13000) of 36% and an inhibition at […] ([2]; read-out: inhibition of TNFα secretion, Budesonide 35 nM, Protriptyline nM: 0, 52, 208, 834, 3336, 13000) of 44.5%. It also gave an inhibition at […] ([2]; read-out: percent inhibition of TNFα secretion, Budesonide 35 nM, Amitriptyline nM: 0, 50, 199, 796, 3186, 13000) of 42%, an inhibition at […] ([2]; read-out: percent inhibition of TNFα secretion, Budesonide 35 nM, Amoxapine nM: 0, 12, 50, 199, 797, 3187) of 36.7% and an inhibition at […] ([2]; read-out: percent inhibition of TNFα secretion, Budesonide 35 nM, Clomipramine nM: 0, 45, 178, 712, 2848, 11000) of 45.3%. For the same compound, the inhibition at […] ([2]; read-out: percent inhibition of TNFα secretion, Budesonide 35 nM, Desipramine nM: 0, 50, 200, 799, 3197, 13000) was 48.1%.

With `CN(C)CCCN1c2ccccc2CCc2ccc(Cl)cc21` [Clomipramine, clomipramine] the “percent inhibition of TNFα secretion” value ([1]; Prednisolone 1 μM, Clomipramine μM r5-r13: 0,0.45,0.89,1.8,3.6,7.1,14,28,57) was 69.3%, the “IL-1β LPS, percent inhibition relative to untreated controls” value [3, 11] was 3% and 0% and the “IL-2 PI, percent inhibition relative to untreated controls” value [3, 11] was 5% and 0%. For the same compound, the “TNFα LPS, percent inhibition relative to untreated controls” value [3, 11] was 0% and the “TNFα PI, percent inhibition relative to untreated controls” value [3, 11] was 0%.
